Source: US20240217988A1, “ESTROGEN RECEPTOR ANTAGONIST” (Shenzhen Forward Pharmaceuticals Co., Limited, priority 2021, published 2024)

Assays:
[1] = system: Human breast cancer cells MCF-7; assay: MCF-7 cell proliferation experiment; type: cell-based; conditions: MCF-7 cells, 72 hours, Cell Titer-Glo
Procedure: Test Example 2: MCF-7 Cell Proliferation Experiment
Human breast cancer cells MCF-7 (HTB-22, purchased from ATCC) were inoculated into a 96-well plate. The culture medium was an MEM (Hyclone, SH30024.01B) culture medium containing 10% of FBS (Gibco, 10099-141), 1% of pyruvic acid (Sigma, S8636), and 1% of nonessential amino acid (Sigma, M7145), and the inoculation density was 4,000 cells/well. The cells were cultured at 37° C., 5% CO2. The compound was prepared into a 20 mM stock solution, which was subjected to gradient dilution to a final concentration of […] with 100% DMSO (Sigma, D2650) and then diluted 20 folds with a culture medium containing 2% of FBS. After 24 hours of culture, the culture medium was removed, 90 μL of a culture medium containing 2% of FBS and 10 μL of drug were added to each well, while 10 μL of DMSO was added to the control group, and they were gently shaken and mixed. The blank group only contained 100 μL of 2% FBS culture medium. They were placed in an incubator and cultured at 37° C., 5% CO2. After 72 hours, 50 μL of mixed Cell Titer-Glo (Promega, G7571) was added. They were shaken and mixed uniformly, and placed at room temperature for 10 min. The chemiluminescence signal value was determined. The negative control was 0.5% DMSO well.

ERα = ERα (Homo sapiens (Human), UniProt P03372); assay: Degradation effect of compound on ERα (ERα DuoSet IC ELISA in MCF-7 cells); type: cell-based; conditions: 24 h with compound; for DC50: read-out: IC50 value of ERα degradation by compound
Procedure: In this test example, ERα DuoSet IC ELISA Kit (R&D, DYC5715) was used to detect the degradation effect of the compound on ERα. On the first day of the experiment, human breast cancer cells MCF-7 (the source was as above) were inoculated into a 24-well plate. The culture medium was an MEM culture medium containing 10% of activated-carbon-treated FBS (Tocyto, UT61204), 1% of pyruvic acid and 1% of nonessential amino acid. The inoculation density was 150,000 cells/well. The cells were cultured at 37° C., 5% CO2 for 24 h.
On the second day of the experiment, the compound to be tested was diluted in gradient and added to a 24-well plate containing cells. The cells were cultured for 24 h at 37° C., 5% CO2. ERα capture antibody was diluted to 1 μg/ml with PBS (Corning, 21-040-CVR) and added to a 96-well plate at 100 μL/well, and the plate was […] coated overnight at room temperature.
On the third day of the experiment, the coated 96-well plate was washed three times with PBS, 300 μL of a blocking solution (R&D, DY995) was added to each well, and the plate was blocked at room temperature for 1 h. The 24-well plate was washed once with PBS, and the residual liquid was sucked off. […] The diluted cell lysate was taken and added to the blocked 96-well plate, with 100 μL per well, and incubated at room temperature for 2 h. The plate was washed three times with a washing solution (R&D, WA126), and a primary antibody was then added. After incubation for 1 h, the 96-well plate was washed four times, a secondary antibody was added, and incubation was carried out at room temperature in the dark for 30 min. The plate was washed four times with the washing solution, and TMB (R&D, DY999) was added. After 15 minutes of development, the reaction was terminated with a stop solution (R&D, DY994), and the light absorption at 450 nm was read.

[2] = Stability in human liver microsomes in vitro; type: in vitro ADME; conditions: for microsomal CLint: read-out: CLint(mic)
Procedure: Test Example 4: Test for Stability in Human Liver Microsomes In Vitro Eight 96-well incubation plates were prepared and named [NT], Blank60 and NCF60, respectively. […] No test compound or control compound was added to Blank60 plate, and samples were taken after incubation for 60 min. NCF60 plate was incubated with a potassium phosphate buffer instead of an NADPH regeneration system solution (Sigma, N0505) for 60 min. […] Only the microsome working solution was added to Blank60 plate, and the incubation plates Blank60, T5, T15, T30, T45 and T60 except T0 and NCF60 were then placed in a water bath at 37° C. and pre-incubated for about 10 min. To the samples of T0 plate, 600 μL of a stop solution (acetonitrile:methanol (95:5, v/v) solution containing 100 ng/mL of tolbutamide (Sigma, T0891)) was added first, and the NADPH regeneration system working solution was then added. 98 μL of a potassium phosphate buffer was added to each well of NCF60 plate and incubated for 60 min. After the pre-incubation in the incubation plates Blank60, T5, T15, T30, T45 and T60 was completed, 98 μL of the NADPH regeneration system working solution was added to each sample well to initiate the reaction. After an appropriate incubation time (such as 5, 15, 30, 45 and 60 min), 600 μL of a stop solution was added to each sample well and the control sample well in Blank60, […] the reaction. All the sample plates were shaken uniformly and centrifuged at 3220×g for 20 min. 200 μL of test sample supernatant was separately taken and diluted in 200 μL of an aqueous solution containing 0.3% formic acid for LC-MS/MS analysis, and 100 μL of control sample supernatant was taken and diluted in 300 μL of pure water for LC-MS/MS analysis. Calculation was performed according to the following formula: [formula] [formula] [formula] [formula] [formula] [formula]

[3] = human liver microsomes, microsome protein 1 mg/mL working solution, NADPH
[4] = human liver microsomes, scaled to liver

Sequence of ERα (P03372 whole entry): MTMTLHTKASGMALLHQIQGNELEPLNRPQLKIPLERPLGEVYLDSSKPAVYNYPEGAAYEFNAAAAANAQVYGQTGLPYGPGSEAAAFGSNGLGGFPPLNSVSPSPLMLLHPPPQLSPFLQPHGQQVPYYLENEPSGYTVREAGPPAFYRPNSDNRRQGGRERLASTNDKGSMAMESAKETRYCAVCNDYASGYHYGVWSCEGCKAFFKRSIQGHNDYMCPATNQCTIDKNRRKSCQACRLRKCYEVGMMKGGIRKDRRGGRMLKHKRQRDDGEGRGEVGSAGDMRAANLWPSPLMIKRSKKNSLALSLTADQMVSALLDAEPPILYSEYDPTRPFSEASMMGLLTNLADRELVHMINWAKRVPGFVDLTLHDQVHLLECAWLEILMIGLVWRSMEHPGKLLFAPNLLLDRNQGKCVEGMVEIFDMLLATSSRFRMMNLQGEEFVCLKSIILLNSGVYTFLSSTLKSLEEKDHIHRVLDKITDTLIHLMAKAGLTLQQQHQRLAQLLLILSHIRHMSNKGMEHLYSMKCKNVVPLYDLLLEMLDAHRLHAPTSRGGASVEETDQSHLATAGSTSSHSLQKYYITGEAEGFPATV

C[C@@H]1Cc2c(ccc3[nH]c(=O)oc23)[C@@H](c2c(F)cc(OCCNC/C=C/C(=O)N(C)C)cc2F)N1CC(F)(F)F [Example 16, (E)-4-((2-(3,5-difluoro-4-((6S,8R)-8-methyl-2-oxy-7-(2,2,2-trifluoroethyl)-2,3,6,7,8,9-hexahydrooxazolo[5,4-f]isoquinolin-6-yl)phenoxy)ethyl)amino)-N,N-dimethylbut-2-enamide]
IC50 ([1]; Homo sapiens, MCF7): 800 pM

COc1cc(NC2CN(CCCF)C2)cnc1[C@@H]1c2ccc3[nH]c(=O)oc3c2C[C@@H](C)N1CC(F)(F)F [Example 28, (6S,8R)-6-(5-((1-(3-fluoropropyl)azetidin-3-yl)amino)-3-methoxypyridin-2-yl)-8-methyl-7-(2,2,2-trifluoroethyl)-6,7,8,9-tetrahydroxazolo[5,4-f]isoquinolin-2(3H)-one]
IC50 ([1]; Homo sapiens, MCF7): 400 pM

C[C@@H]1Cc2c(ccc3[nH]c(=O)oc23)[C@@H](c2ccc(OCCCN3CCN(CCNc4cccc5c4CN(C4CCC(=O)NC4=O)C5=O)CC3)cn2)N1CC(F)(F)F (stereo partly drawn) [Example 43, 3-(4-((2-(4-(3-((6-((6S,8R)-8-methyl-2-oxo-7-(2,2,2-trifluoroethyl)-2,3,6,7,8,9-hexahydrooxazolo[5,4-f]isoquinolin-6-yl)pyridin-3-yl)oxy)propyl)piperazin-1-yl)ethyl)amino)-1-oxoisoindolin-2-yl)piperidine-2,6-dione]
IC50 ([1]; Homo sapiens, MCF7): 690 pM | DC50 (ERα): 630 pM

C[C@@H]1Cc2c(ccc3[nH]c(=O)oc23)[C@@H](c2c(F)cc(NC3CN(C/C=C/C(=O)N(C)C)C3)cc2F)N1CC(F)(F)F [Example 35, (E)-4-(3-((3,5-difluoro-4-((6S,8R)-8-methyl-2-oxo-7-(2,2,2-trifluoroethyl)-2,3,6,7,8,9-hexahydrooxazolo[5,4-f]isoquinolin-6-yl)phenyl)amino)azetidin-1-yl)-N,N-dimethylbut-2-enamide]
IC50 ([1]; Homo sapiens, MCF7): 820 pM

C[C@@H]1Cc2c(ccc3[nH]ncc23)[C@@H](c2ccc(NC3CN(CCCF)C3)cn2)N1CC(F)(F)F [AZD9833, reference compound]
IC50 ([1]; Homo sapiens, MCF7): 2450 pM | half-life [2, 3]: 1.33 h | CLint scaled [2, 4]: 15.6 mL/min/kg | microsomal CLint ([2]; human liver microsomes): 17.3 µL/min/mg

C[C@@H]1Cc2c([nH]c3ccccc23)[C@@H](c2c(F)cc(/C=C/C(=O)O)cc2F)N1CC(C)(C)F [AZD9496, reference compound]
IC50 ([1]; Homo sapiens, MCF7): 3840 pM

C[C@@H]1Cc2c(ccc3[nH]c(=O)oc23)[C@@H](c2c(F)cc(O[C@H]3CCN(CCCF)C3)cc2F)N1CC(F)(F)CO [Example 13, (6S,8R)-7-(2,2-difluoro-3-hydroxypropyl)-6-(2,6-difluoro-4-(((S)-1-(3-fluoropropane)pyrrolidin-3-yl)oxy)phenyl)-8-methyl-6,7,8,9-tetrahydrooxazolo[5,4-f]isoquinolin-2(3H)-one]
IC50 ([1]; Homo sapiens, MCF7): 300 pM | DC50 (ERα): 230 pM

(E)-4-((S)-3-((3,5-difluoro4-((6S,8R)-8-methyl-2-oxo-7-(2,2,2-trifluoroethyl)-2,3,6,7, 8,9-hexahydrooxazolo[5,4-f]isoquinolin-6-yl)phenoxy)pyrrolidin-1-yl)-N,N-dimethylbut-2-enamide [Example 39]
IC50 [1]: 490 pM

C[C@@H]1Cc2c(ccc3[nH]c(=O)oc23)[C@@H](c2ncc(NC3CN(CCCF)C3)cc2F)N1CC(F)(F)F [Example 27, (6S,8R)-6-(3-fluoro-5-((1-(3-fluoropropyl)azetidin-3-yl)amino)pyridin-2-yl)-8-methyl-7-(2,2,2-trifluoromethyl)-6,7,8,9-tetrahydroxazolo[5,4-f]isoquinolin-2(3H)-one]
IC50 ([1]; Homo sapiens, MCF7): 1630 pM

C[C@@H]1Cc2c(ccc3[nH]c(=O)oc23)[C@@H](c2c(F)cc(N3CC4(CN(CCF)C4)C3)cc2F)N1CC(F)(F)F [Example 8, (6S,8R)-6-(2,6-difluoro-4-(6-(2-fluoroethyl)-2,6-diazspiro[3.3]hept-2-yl)phenyl)-8-methyl-7-(2,2,2-trifluoroethyl)-6,7,8,9-tetrahydrooxazolo[5,4-f]isoquinolin-2(3H)-one]
half-life [2, 3]: 1.43 h | CLint scaled [2, 4]: 14.5 mL/min/kg | microsomal CLint ([2]; human liver microsomes): 16.1 µL/min/mg

C[C@@H]1Cc2c(ccc3[nH]c(=O)oc23)[C@@H](c2c(F)cc(O[C@H]3CCN(CCCF)C3)cc2F)N1CC(F)(F)F [Example 11]
IC50 ([1]; Homo sapiens, MCF7): 380 pM | DC50 (ERα): 620 pM

C[C@@H]1Cc2c(ccc3[nH]c(=O)oc23)[C@@H](c2ccc(NC3CN(CCCF)C3)cn2)N1CC(F)(F)F [Example 5, (6S,8R)-6-(5-((1-(3-fluoropropane)azetidin-3-yl)amino)pyridin-2-yl)-8-methyl-7-(2,2,2-trifluoroethyl)-6,7,8,9-tetrahydrooxazolo[5,4-f]isoquinolin-2(3H)-one]
half-life [2, 3]: 1.26 h | CLint scaled [2, 4]: 16.5 mL/min/kg | microsomal CLint ([2]; human liver microsomes): 18.4 µL/min/mg

C[C@@H]1Cc2c(ccc3[nH]c(=O)oc23)[C@@H](c2c(F)cc(O[C@@H]3CCN(C/C=C/C(=O)N(C)C)C3)cc2F)N1CC(F)(F)F [Example 37]
IC50 ([1]; Homo sapiens, MCF7): 610 pM

C[C@@H]1Cc2c(ccc3[nH]ncc23)[C@@H](c2c(F)cc(OCCN3CC(CF)C3)cc2F)N1CC(C)(C)F [Comparative Compound 1, (6S,8R)-6-(2,6-difluoro-4-(2-(3-(fluoromethyl)azetidin-1-yl)ethoxy)phenyl)-7-(2-fluoro-2-methylpropyl)-8-methyl-6,7,8,9-tetrahydro-3H-benzopyrazolo[4,3-f]isoquinoline, reference compound]
IC50 [1]: 2680 pM | T1/2 [2, 3]: 0.703 h | CLint(liver) [2, 4]: 29.6 mL/min/kg | CLint(mic) ([2]; human, microsomes): 32.9 µL/min/mg | IC50 (ERα): 1890 pM

C[C@@H]1Cc2c(ccc3[nH]c(=O)oc23)[C@@H](c2ccc(O[C@H]3CCN(CCCF)C3)cn2)N1CC(F)(F)F [Example 29, (6S,8R)-6-(5-(((S)-1-(3-fluoropropane)pyrrolidin-3-yl)oxy)pyridin-2-yl)-8-methyl-7-(2,2,2-trifluoroethyl)-6,7,8,9-tetrahydrooxazolo[5,4-f]isoquinolin-2(3H)-one]
IC50 ([1]; Homo sapiens, MCF7): 710 pM
